Experimental data: US7534778B2, “(20S)-1α-hydroxy-2-methylene-19-nor-bishomopregnacalciferol and its uses” (Wisconsin Alumni Research Foundation, priority 2001, dated 2009)
pEC50, pKi: −log10 of the molar value. Entries after “also recorded” stand apart in the source; their conditions may differ. Where two headings read alike, the source gives them in different places.

Experiments:
[1] = tested on: calcium mobilization from bone; assay: bone calcium mobilization in vitamin D-deficient rats on low calcium diet; type: in vivo, rat; conditions: for bone calcium mobilization activity (serum calcium levels): low calcium diet (0.02%), overall / all dosages, FIG. 4
Method: (§1) Calcium mobilization from bone and intestinal calcium absorption in vitamin D-deficient animals. Using vitamin D-deficient rats on a low calcium diet (0.02%), the activities of these compounds in intestine and bone were tested.

[2] = serum calcium response in vitamin D-sufficient normal female rats; type: in vivo, rat; conditions: for serum calcium (hypercalcemia): normal female rats, 5000 pmol/day for 7 days, oral or intraperitoneal, 4 hours after last dose
Method: Serum calcium response in vitamin D-sufficient animals on a normal calcium diet. […] The doses were administered to two separate groups of animals by either the oral or intraperitoneal route, and serum calcium levels were assessed 4 hours after the last dose.

[3] = target: T1, full-length recombinant rat vitamin D receptor (Rattus norvegicus, UniProt P13053); assay: competition with [3H]-1,25(OH)2D3 for binding to vitamin D receptor; conditions: FIG. 2, read-out: Ki, competition with [3H]-1,25(OH)2D3 for VDR binding
T1 sequence (P13053 1-423): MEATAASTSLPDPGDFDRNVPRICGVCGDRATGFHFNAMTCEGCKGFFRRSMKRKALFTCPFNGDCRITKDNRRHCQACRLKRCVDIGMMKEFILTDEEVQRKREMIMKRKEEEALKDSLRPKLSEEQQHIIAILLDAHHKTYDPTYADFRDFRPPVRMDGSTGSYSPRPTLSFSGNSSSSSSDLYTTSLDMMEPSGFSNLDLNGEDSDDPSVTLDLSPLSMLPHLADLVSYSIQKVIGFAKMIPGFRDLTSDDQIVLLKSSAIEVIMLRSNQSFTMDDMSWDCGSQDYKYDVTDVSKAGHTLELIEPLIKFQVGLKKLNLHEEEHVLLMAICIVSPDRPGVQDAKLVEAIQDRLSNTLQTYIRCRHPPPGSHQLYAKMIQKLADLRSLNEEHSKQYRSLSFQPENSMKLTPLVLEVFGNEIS

[4] = tested on: HL-60 cells; assay: HL-60 cell differentiation into monocytes; type: cell-based; conditions: FIG. 3; for pEC50: HL-60 cells, read-out: EC50, HL60 differentiation
Method: The differentiation of HL-60 promyelocytic into monocytes was determined as described by Ostrem et al (J. Biol. Chem. 262, 14164-14171, 1987).
VDR binding and HL60 cell differentiation.

[5] = tested on: intestinal calcium transport; assay: intestinal calcium transport, everted gut sac method, vitamin D-deficient rats; type: in vivo, rat; conditions: for intestinal calcium transport: everted gut sac, vitamin D-deficient rats
Method: as §1
Intestinal calcium transport was evaluated in the same groups of animals using the everted gut sac method (FIG. 5).

[6] = tested on: porcine intestinal vitamin D receptor; assay: binding to porcine intestinal vitamin D receptor; conditions: FIG. 2

| SMILES | mobilization of bone calcium ([1]; 260 pmol/day for 7 days) | serum calcium (hypercalcemia) [2] | pKi [3] | pEC50 [4] | intestinal calcium transport activity ([5]; overall, dose not stated) | mobilization of bone calcium ([1]; 1300 pmol/day (5-fold)) | bone calcium mobilization activity (serum calcium levels) [1] | calcemic activity from serum calcium ([2]; rats, chronic doses, FIG. 6) | potency on HL-60 differentiation relative to 1,25(OH)2D3 [4] | pEC50 ([4]; Homo sapiens) | binding to porcine receptor compared to standard 1,25-(OH)2D3 [6] | intestinal calcium transport ([5]; 260 or 1300 pmol/day) | intestinal calcium transport ([5]; 260 pmol/day) | intestinal calcium transport activity ([5]; doses higher than 1300 pmol/day) |
| --- | --- | --- | --- | --- | --- | --- | --- | --- | --- | --- | --- | --- | --- | --- |
| C[C@H](CCCC(C)(C)O)[C@H]1CC[C@H]2/C(=C/C=C3C[C@@H](O)C[C@H](O)C3)CCC[C@]12C [1,25(OH)2 19-nor-D3, 1α,25-dihydroxy-19-nor-vitamin D3, reference compound] | did not result in mobilization of bone calcium | produced frank hypercalcemia | 9.70 | 8.40 | devoid of intestinal calcium transport activity |  |  |  |  |  |  |  |  |  |
| C=C1[C@H](O)CC(=C/C=C2\CCC[C@]3(C)[C@@H]([C@@H](C)CC)CC[C@@H]23)C[C@H]1O [2-MbisP, (20S)-1α-hydroxy-2-methylene-19-nor-bishomopregnacalciferol] | did not result in mobilization of bone calcium | no increase in serum calcium | 9.22 |  | very little activity | without effect | very little bone calcium mobilization activity; also recorded: little, if any, activity in mobilizing calcium from bone | very little calcemic activity | almost as potent as 1,25(OH)2D3 | 8.15 | bound equally well | do not promote intestinal calcium transport |  |  |
| C=C1/C(=C\C=C2/CCC[C@]3(C)[C@@H]([C@H](C)CCCC(C)(C)O)CC[C@@H]23)C[C@@H](O)C[C@@H]1O [1,25(OH)2D3, 1α,25-dihydroxyvitamin D3, reference compound] |  |  |  | 8.30 |  |  | increased serum calcium levels at all dosages |  |  |  |  |  | promotes a significant increase |  |
| C=C1[C@H](O)CC(=C/C=C2\CCC[C@]3(C)[C@@H](CC)CC[C@@H]23)C[C@H]1O [2-Mpregna, 1α-hydroxy-2-methylene-19-nor-pregnacalciferol] | did not result in mobilization of bone calcium |  | 9.52 | 7.77 |  | without effect | little, if any, activity in mobilizing calcium from bone |  |  |  |  | do not promote intestinal calcium transport |  |  |
| C=C1C(O)CC(=CC=C2CCCC3(C)C2CCC3C(C)C)CC1O (stereo not drawn) [2-MP, 1α-hydroxy-2-methylene-19-nor-homopregnacalciferol] | did not result in mobilization of bone calcium |  | 9.52 | 8.22 |  | without effect | little, if any, activity in mobilizing calcium from bone |  |  |  |  | calcium transport activity equivalent to 1,25(OH)2D3 |  | decreased this activity |
